Test results as given in publication PMC11672294, “The Antipsychotic Drug Aripiprazole Suppresses Colorectal Cancer by Targeting LAMP2a to Induce RNH1/miR‐99a/mTOR‐Mediated Autophagy and Apoptosis” (Advanced Science, 2024).
Counter-ions that a name gives are not always drawn.

tested on: HT29; conditions: 72 h, relative to DMSO, 10 µM, Relative cell viability (%)
Excerpt: To investigate the key signaling pathways and biological processes involved in CRC progression, we analyzed the National Center for Biotechnology Information Gene Expression Omnibus (GEO) dataset GSE115313, which included 42 CRC and paired normal tissues (Figure 1A). […] Next, we performed an Annexin V‐fluorescein isothiocyanate (FITC)/propidium iodide (PI) staining assay to determine the effect of aripiprazole on apoptosis in CRC cells. […] A) Principal component analysis of GEO dataset (GSE115313), which includes 42 CRC and paired normal tissues. B) Gene Ontology pathway analysis of the DEPs between CRC and paired normal tissues. […] D) Schematic diagram for identifying anticancer drugs amongst an US Food and Drug Administration‐approved small‐molecule library (616 compounds) using WST‐1 assay. E) HT29 cells were treated with the 616 drugs (10 µM) individually or with dimethyl sulfoxide for 72 h, followed by WST‐1 assay. […] J) Mice bearing HT29‐derived tumor xenografts were intragastrically administered with aripiprazole (10 or 20 mg kg^−1) once every 2 d, n = 6 mice/group. […] Bars, SD; ^* p < 0.05; ^** p < 0.01; ^*** p < 0.001; ns, no significant difference. The WST‐1 Cell Proliferation and Cytotoxicity Assay Kit (Beyotime Biotechnology, Shanghai, China) was used to measure cell viability, as described previously.^[ [10] ^] CRC cells were seeded into 96‐well plates and treated with different drug concentrations. Following that, WST‐1 was added to the plate and incubated with the cells for 2 h, at 37 °C. Absorbance at the wavelength of 450 nm was measured using an automated microplate spectrophotometer (BioTek Instruments, Winooski, VT, USA).

SMILES | Relative cell viability (%) [%]
COc1ccccc1Oc1c(NS(=O)(=O)c2ccc(C(C)(C)C)cc2)nc(-c2ncccn2)nc1OCCO [Bosentan Hydrate] | 83.98
COc1ccc2nc([S@@+]([O-])Cc3ncc(C)c(OC)c3C)[nH]c2c1 [Esomeprazole Sodium] | 105.5
COc1cc(Nc2ncc(F)c(Nc3ccc4c(n3)N(COP(=O)(O)O)C(=O)C(C)(C)O4)n2)cc(OC)c1OC [Fostamatinib (R788)] | 28.64

same assay, conditions: 72 h, relative to DMSO; 10 µM

SMILES | Relative cell viability (%) [%]
C[C@H]1C[C@@H]2[C@H]([C@@H](O)C[C@@]3(C)[C@H]2CC[C@]3(O)C(=O)CO)[C@@]2(C)C=CC(=O)C=C12 [Methylprednisolone] | 42.37
COc1cc2c(cc1OC)CN(CCc1ccc(NC(=O)c3cccc4c(=O)c5cccc(OC)c5[nH]c34)cc1)CC2 [Elacridar (GF120918)] | 48.29
Cc1c(N)nc([C@H](CC(N)=O)NC[C@H](N)C(N)=O)nc1C(=O)N[C@H](C(=O)N[C@H](C)[C@@H](O)[C@H](C)C(=O)N[C@H](C(=O)NCCc1nc(-c2nc(C(=O)NCCC[S+](C)C)cs2)cs1)[C@@H](C)O)[C@@H](O[C@@H]1O[C@@H](CO)[C@@H](O)[C@H](O)[C@@H]1O[C@H]1O[C@H](CO)[C@@H](O)[C@H](OC(N)=O)[C@@H]1O)c1c[nH]cn1 [Bleomycin Sulfate] | 74.3
COc1ccc([C@@H]2Sc3ccccc3N(CCN(C)C)C(=O)[C@@H]2OC(C)=O)cc1 [Diltiazem HCl] | 67.8
O=P1(NCCCl)OCCCN1CCCl (centres unmarked) [Ifosfamide] | 92.99
CCCCN1CCCCC1C(=O)Nc1c(C)cccc1C (centres unmarked) [Bupivacaine HCl] | 106.7
CC(=O)O[C@]1(C(C)=O)CC[C@H]2[C@@H]3C=C(Cl)C4=CC(=O)[C@@H]5C[C@@H]5[C@]4(C)[C@H]3CC[C@@]21C [Cyproterone Acetate] | 132.9
Nc1nc2c(ncn2CCC(CO)CO)c(=O)[nH]1 [Penciclovir] | 100.303
CC(=O)OCC(=O)[C@@]12N=C(C)O[C@@H]1C[C@H]1[C@@H]3CCC4=CC(=O)C=C[C@]4(C)[C@H]3[C@@H](O)C[C@@]12C [Deflazacort] | 91.95
CCOC(=O)c1c(C)n(C)c2ccc(O)cc12 [Mecarbinate] | 130.3
C[C@]12C=CC(=O)C=C1CC[C@@H]1[C@@H]2[C@@H](O)C[C@@]2(C)[C@H]1CC[C@]2(O)C(=O)CO [Prednisolone] | 56.36
Cc1nc2c([nH]1)-c1ccccc1N(C(=O)c1ccc(NC(=O)c3ccccc3-c3ccccc3)cc1)CC2 [Conivaptan HCl] | 109
NC(=O)c1cn(Cc2c(F)cccc2F)nn1 [Rufinamide] | 91.43
C=C(c1ccc(C(=O)O)cc1)c1cc2c(cc1C)C(C)(C)CCC2(C)C [Bexarotene] | 134.4
CO[C@H]1/C=C/O[C@@]2(C)Oc3c(C)c(O)c4c(O)c(c5c(nc6cc(C)ccn65)c4c3C2=O)NC(=O)/C(C)=C\C=C\[C@H](C)[C@H](O)[C@@H](C)[C@@H](O)[C@@H](C)[C@H](OC(C)=O)[C@@H]1C [Rifaximin] | 94.49
Clc1ccc2c(c1)C(N1CCNCC1)=Nc1ccccc1O2 [Amoxapine] | 73.94
COc1ccccc1OCCNCC(O)COc1cccc2[nH]c3ccccc3c12 (centres unmarked) [Carvedilol] | 24.58
CC(=O)c1cc2c(o1)C(=O)c1ccccc1C2=O [Napabucasin] | 0
CC1CC(OC(=O)C(O)c2ccccc2)CC(C)(C)C1 (centres unmarked) [Cyclandelate] | 65.76
O=C(O)c1cccnc1 [Nicotinic Acid] | 70.34
CCc1ccc(CCOc2ccc(CC3SC(=O)NC3=O)cc2)nc1 (centres unmarked) [Pioglitazone HCl] | 158.4
CN(C)CCOC(C)(c1ccccc1)c1ccccn1 (centres unmarked) [Doxylamine Succinate] | 83.94
C#C[C@]1(O)C=C[C@H]2[C@@H]3CCC4=CC(=O)CC[C@@H]4[C@H]3CC[C@@]21CC [Gestodene] | 69.63
